# In US7851474B2, “Dipiperazinyl ketones and related analogues” (Neurogen Corporation, priority 2005, dated 2010):
# pKi: −log10 of the molar value.
# Biological target: T1, chimeric human H3 receptor (Homo sapiens, UniProt Q9Y5N1, E19D)
# T1 construct: made in house; host or cells: Sf9 insect cells (baculovirus infection); P2 membrane preparation
# Assay: Chimeric human H3 receptor GTP binding assay (agonist-stimulated GTP-gamma35S binding, Example 7)
# Type: biochemical
# Conditions: "*" in Ki of Table II; assay of Example 7; read-out: Ki
# Description: This Example illustrates a representative assay for evaluating agonist-stimulated GTP-gamma^35S binding (“GTP binding”) activity. […] This agonist-stimulated GTP binding activity can also be used to detect partial agonism mediated by antagonist compounds. A compound analyzed in this assay is referred to herein as a “test compound.”
# Four independent baculoviral stocks (one directing the expression of the chimeric human H3 receptor and three directing the expression of each of the three subunits of a heterotrimeric G-protein) are used to infect a culture of Sf9 cells as described above. P2 membranes are prepared as described above, and agonist-stimulated GTP binding on the P2 membranes is assessed using histamine (Sigma Chemical Co., St. Louis, Mo.) as agonist in order to ascertain that the receptor/G-protein-alpha-beta-gamma combination(s) yield a functional response as measured by GTP binding. P2 membranes are resuspended by Dounce homogenization (tight pestle) in GTP binding assay buffer (50 mM Tris pH 7.4, 120 mM NaCl, 5 mM MgCl2, 2 mM EGTA, 1 mg/ml BSA, 0.2 mg/ml bacitracin, 0.02 mg/ml aprotinin, 0.01 mg/ml saponin, 10 μM GDP) and added to assay tubes at a concentration of 35 μg protein/reaction tube. […] In competition experiments, non-radiolabeled test compounds are added to separate reactions at concentrations ranging from 10^−10 M to 10^−6 M along with 1 μM histamine to yield a final volume of 0.20 ml.
# Neutral antagonists are antagonists that are substantially free of inherent agonist activity, and include those test compounds that reduce the histamine-stimulated GTP binding activity towards, but not below, baseline levels. In contrast, in the absence of added histamine, inverse agonists reduce the GTP binding activity of the receptor-containing membranes below baseline.
# After a 60-min incubation at room temperature, reactions are terminated by vacuum filtration over WHATMAN GF/C filters (pre-soaked in wash buffer, 0.1% BSA) followed by washing with ice-cold wash buffer (50 mM Tris pH 7.4, 120 mM NaCl). The amount of receptor-bound (and thereby membrane-bound) GTP-gamma^35S is determined by measuring the filter-bound radioactivity, preferably by liquid scintillation spectrometry of the washed filters. […] Data is expressed as percent above basal (baseline). The results of GTP binding experiments are analyzed using SIGMAPLOT software (SPSS Inc., Chicago, Ill.).
# IC50 values are calculated by non-linear regression analysis of dose-response curves using Kaleidograph (Synergy Software, Reading, Pa.).
# T1 sequence (Q9Y5N1 with tags, fused parts or gaps E19D): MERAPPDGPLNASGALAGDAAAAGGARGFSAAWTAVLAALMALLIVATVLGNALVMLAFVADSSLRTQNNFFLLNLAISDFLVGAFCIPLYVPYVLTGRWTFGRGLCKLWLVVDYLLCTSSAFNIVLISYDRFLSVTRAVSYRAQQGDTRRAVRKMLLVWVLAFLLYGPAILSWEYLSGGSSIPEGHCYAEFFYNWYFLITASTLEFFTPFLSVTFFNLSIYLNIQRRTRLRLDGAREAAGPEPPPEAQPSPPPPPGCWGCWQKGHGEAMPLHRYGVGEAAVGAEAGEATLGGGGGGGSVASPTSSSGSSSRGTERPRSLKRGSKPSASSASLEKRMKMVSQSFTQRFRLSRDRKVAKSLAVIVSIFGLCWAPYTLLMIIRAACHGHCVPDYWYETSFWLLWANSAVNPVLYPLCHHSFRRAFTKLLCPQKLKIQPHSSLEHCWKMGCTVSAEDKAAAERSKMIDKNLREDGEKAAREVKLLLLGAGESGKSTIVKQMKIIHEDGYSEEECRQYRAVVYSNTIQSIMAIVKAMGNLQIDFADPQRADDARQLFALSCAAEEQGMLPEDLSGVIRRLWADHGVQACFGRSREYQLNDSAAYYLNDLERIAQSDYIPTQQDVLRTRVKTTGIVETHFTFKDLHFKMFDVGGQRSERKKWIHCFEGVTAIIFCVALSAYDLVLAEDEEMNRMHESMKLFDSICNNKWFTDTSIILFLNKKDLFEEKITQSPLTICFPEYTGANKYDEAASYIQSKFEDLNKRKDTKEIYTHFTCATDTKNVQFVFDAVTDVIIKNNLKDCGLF
row,pKi,SMILES
1,> 6.00,"CC(C)N1CCN(C(=O)CN2CCC(N(C)C)C2)CC1 (stereo not shown) [Compound 446, 1-[2-(4-isopropylpiperazin-1-yl)-2-oxoethyl]-N,N-dimethylpyrrolidin-3-amine]"
2,> 6.00,"CC(=O)N1CCN(CC(=O)N2CCN(C3CCC3)CC2)CC1 [Compound 483, 1-acetyl-4-[2-(4-cyclobutylpiperazin-1-yl)-2-oxoethyl]piperazine]"
3,> 6.00,"CC(=O)c1ccc(-c2ccc(N3CCN(CC(=O)N4CCN(C5CCC5)CC4)CC3)nn2)cc1 [Compound 459, 1-[4-(6-{4-[2-(4-cyclobutylpiperazin-1-yl)-2-oxoethyl]piperazin-1-yl}pyridazin-3-yl)phenyl]ethanone]"

# Same assay, conditions: Table II "Ki", symbol "*": Ki in the assay of Example 7; read-out: Ki
row,pKi,SMILES
1,> 6.00,"O=C(CN1CCN(c2cc(Cl)cc(Cl)c2)CC1)N1CCN(C2CCCC2)CC1 [Compound 838, 1-cyclopentyl-4-{[4-(3,5-dichlorophenyl)piperazin-1-yl]acetyl}piperazine]"
2,> 6.00,"O=C1CCc2cc(N3CCN(C(=O)OCC(=O)N4CCN(C5CCCC5)CC4)CC3)ccc21 [Compound 909, 2-(4-cyclopentylpiperazin-1-yl)-2-oxoethyl 4-(1-oxo-2,3-dihydro-1H-inden-5-yl)piperazine-1-carboxylate]"
3,> 6.00,"O=C(CN1CCN(c2cnc(-c3cc(C(F)(F)F)ccc3Cl)cn2)CC1)N1CCN(C2CCC2)CC1 [Compound 912, 2-[2-chloro-5-(trifluoromethyl)phenyl]-5-{4-[2-(4-cyclobutylpiperazin-1-yl)-2-oxoethyl]piperazin-1-yl}pyrazine]"
4,> 6.00,"O=C(CN1CCN(c2ccc(F)cc2)CC1)N1CCN(C2CCCCC2)CC1 [Compound 822, 1-cyclohexyl-4-{[4-(4-fluorophenyl)piperazin-1-yl]acetyl}piperazine]"
5,> 6.00,"O=C(CN1CCN(c2cnc(-c3ccc(Cl)c(F)c3)cn2)CC1)N1CCN(C2CCC2)CC1 [Compound 903, 2-(4-chloro-3-fluorophenyl)-5-{4-[2-(4-cyclobutylpiperazin-1-yl)-2-oxoethyl]piperazin-1-yl}pyrazine]"
6,> 6.00,"O=C(CN1CCN(c2ccc(-c3ccc(Oc4ccccc4)cc3)cc2)CC1)N1CCN(C2CCC2)CC1 [Compound 787, 1-cyclobutyl-4-{[4-(4′-phenoxybiphenyl-4-yl)piperazin-1-yl]acetyl}piperazine]"

# Same assay, conditions: Table II, "*" in Ki; assay of Example 7; read-out: Ki
row,pKi,SMILES
1,> 6.00,"CC1CC(C)CN(C(=O)c2ccc(N3CCN(CC(=O)N4CCN(C5CCC5)CC4)CC3)nc2)C1 (stereo not shown) [Compound 653, 1-cyclobutyl-4-[(4-{5-[(3,5-dimethylpiperidin-1-yl)carbonyl]pyridin-2-yl}piperazin-1-yl)acetyl]piperazine]"
2,> 6.00,"O=C(CN1CCN(c2cccc(C(=O)N3CCCC3)c2)CC1)N1CCN(C2CCC2)CC1 [Compound 586, 1-cyclobutyl-4-({4-[3-(pyrrolidin-1-ylcarbonyl)phenyl]piperazin-1-yl}acetyl)piperazine]"
3,> 6.00,"O=C(CN1CCN(c2ccc(-c3cccc(OC(F)(F)F)c3)cc2)CC1)N1CCN(C2CCC2)CC1 [Compound 587, 1-cyclobutyl-4-({4-[3′-(trifluoromethoxy)biphenyl-4-yl]piperazin-1-yl}acetyl)piperazine]"
4,> 6.00,"COc1ccc(-c2ccc(N3CCN(CC(=O)N4CCN(C5CCC5)CC4)CC3)cc2)c(OC)c1 [Compound 678, 1-cyclobutyl-4-{[4-(2′,4′-dimethoxybiphenyl-4-yl)piperazin-1-yl]acetyl}piperazine]"

# Same assay, conditions: Table II; assay of Example 7; "*" in Ki; read-out: Ki
row,pKi,SMILES
1,> 6.00,"O=C(CN1CCC2(CC1)CC(=O)N(Cc1ccccc1)C2=O)N1CCN(C2CCC2)CC1 [Compound 982, 2-benzyl-8-[2-(4-cyclobutylpiperazin-1-yl)-2-oxoethyl]-2,8-diazaspiro[4.5]decane-1,3-dione]"
2,> 6.00,"O=C(CN1CCN(c2cnc(-c3cc(Cl)cc(Cl)c3)cn2)CC1)N1CCN(C2CCC2)CC1 [Compound 963, 2-{4-[2-(4-cyclobutylpiperazin-1-yl)-2-oxoethyl]piperazin-1-yl}-5-(3,5-dichlorophenyl)pyrazine]"
3,> 6.00,"CCCCc1ccc(-c2ccc(N3CCN(CC(=O)N4CCN(C5CCC5)CC4)CC3)nn2)cc1 [Compound 989, 3-(4-butylphenyl)-6-{4-[2-(4-cyclobutylpiperazin-1-yl)-2-oxoethyl]piperazin-1-yl}pyridazine]"
4,> 6.00,"O=C(CN1CCN(c2ccc(-c3cc(Cl)ccc3Cl)nn2)CC1)N1CCN(C2CCC2)CC1 [Compound 1060, 3-{4-[2-(4-cyclobutylpiperazin-1-yl)-2-oxoethyl]piperazin-1-yl}-6-(2,5-dichlorophenyl)pyridazine]"
5,> 6.00,"O=C(CN1CCN(c2ccc(-c3ccc(C(F)(F)F)cc3)nn2)CC1)N1CCN(C2CCC2)CC1 [Compound 1062, 3-{4-[2-(4-cyclobutylpiperazin-1-yl)-2-oxoethyl]piperazin-1-yl}-6-[4-(trifluoromethyl)phenyl] pyridazine]"
6,> 6.00,"CC(C)Oc1cccc(-c2cnc(N3CCN(CC(=O)N4CCN(C5CCC5)CC4)CC3)cn2)c1 [Compound 942, 2-{4-[2-(4-cyclobutylpiperazin-1-yl)-2-oxoethyl]piperazin-1-yl}-5-(3-isopropoxyphenyl) pyrazine]"
7,> 6.00,"N#Cc1ccc(-c2ccc(N3CCN(CC(=O)N4CCN(C5CCC5)CC4)CC3)cc2)cc1 [Compound 1119, 4′-{1-[2-(4-cyclobutylpiperazin-1-yl)-2-oxoethyl]piperazin-1-yl}biphenyl-4-carbonitrile]"
8,> 6.00,"CC(C)Oc1cccc(-c2ccc(N3CCN(CC(=O)N4CCN(C5CCC5)CC4)CC3)nn2)c1 [Compound 1030, 3-{4-[2-(4-cyclobutylpiperazin-1-yl)-2-oxoethyl]piperazin-1-yl}-6-(3-isopropoxyphenyl) pyridazine]"

# Same assay, conditions: assay of Example 7; "*" in Ki of Table II; read-out: Ki
row,pKi,SMILES
1,> 6.00,"COc1cccc(C(=O)NC2CCN(CC(=O)N3CCN(C4CCC4)CC3)C2)c1 (stereo not shown) [Compound 1236, N-{1-[2-(4-cyclobutylpiperazin-1-yl)-2-oxoethyl]pyrrolidin-3-yl}-3-methoxybenzamide]"
2,> 6.00,"O=C(NC1CCN(CC(=O)N2CCN(C3CCC3)CC2)C1)C1CCCCC1 (stereo not shown) [Compound 1256, N-{1-[2-(4-cyclobutylpiperazin-1-yl)-2-oxoethyl]pyrrolidin-3-yl} cyclohexanecarboxamide]"
3,> 6.00,"CCCNC(=O)c1ccc(N2CCN(CC(=O)N3CCN(C4CCC4)CC3)CC2)nc1 [Compound 1175, 6-{4-[2-(4-cyclobutylpiperazin-1-yl)-2-oxoethyl]piperazin-1-yl}-N-propylnicotinamide]"

# Same assay, conditions: assay of Example 7; symbol * in column headed Ki of Table II; read-out: Ki
row,pKi,SMILES
1,> 6.00,"O=C(c1ccncc1)c1ccc(N2CCN(CC(=O)N3CCN(C4CCC4)CC3)CC2)cc1 [Compound 250, (4-{4-[2-(4-cyclobutylpiperazin-1-yl)-2-oxoethyl]piperazin-1-yl}phenyl)(pyridin-4-yl)methanone]"
2,> 6.00,"O=C(CN1CCC2(CC1)C(=O)Nc1cccnc12)N1CCN(C2CCC2)CC1 [Compound 435, 1-[2-(4-cyclobutylpiperazin-1-yl)-2-oxoethyl]spiro[piperidine-4,3′-pyrrolo[3,2-b]pyridin]-2′(1′H)-one]"
3,> 6.00,"O=C(CN1CCN(c2ccc(-c3ccc(Cl)cc3)cc2)CC1)N1CCN(C2CCC2)CC1 [Compound 355, 1-(4′-chlorobiphenyl-4-yl)-4-[2-(4-cyclobutylpiperazin-1-yl)-2-oxoethyl]piperazine]"
4,> 6.00,"CC(=O)c1ccc(N2CCN(CC(=O)N3CCN(C4CCCC4)CC3)CC2)cc1 [Compound 327, 1-(4-{4-[2-(4-cyclopentylpiperazin-1-yl)-2-oxoethyl]piperazin-1-yl}phenyl)ethanone]"
5,> 6.00,"Cc1cc(N2CCN(CC(=O)N3CCN(C4CCCC4)CC3)CC2)ccc1Cl [Compound 351, 1-(4-chloro-3-methylphenyl)-4-[2-(4-cyclopentylpiperazin-1-yl)-2-oxoethyl]piperazine]"
6,> 6.00,"O=C(CN1CCN(c2ccc(C(=O)N3CC[C@H]4CCCC[C@@H]4C3)cc2)CC1)N1CCN(C2CCC2)CC1 [Compound 253, (4aR,8aS)-2-(4-{4-[2-(4-cyclobutylpiperazin-1-yl)-2-oxoethyl]piperazin-1-yl}benzoyl) decahydroisoquinoline]"
7,> 6.00,"COc1cc(N2CCN(CC(=O)N3CCN(C4CCCCC4)CC3)CC2)ccc1Cl [Compound 345, 1-(4-chloro-3-methoxyphenyl)-4-[2-(4-cyclohexylpiperazin-1-yl)-2-oxoethyl]piperazine]"
